From patent publication US9359338B2, “Cyclopropanecarboxamido-substitute aromatic compounds as anti-tumor agents” (Crown Bioscience Inc. (Taiwan), priority 2012, dated 2016)

The compounds below were run against KDR kinase (790-1356 AA) (Homo sapiens (Human), UniProt P35968) (assay: Inhibitory activity at KDR kinase (Lance Ultra Ulight-TK assay)). Conditions: not given.
Assay type: biochemical
Procedure: Inhibitory Activity of Compounds at KDR Kinase
• [Experimental method]: Use Lance@Ultra Ulight™-TK assay kit from PerKinElmer to evaluate the inhibitory activity of compounds at KDR kinase. • [Instrument]: PerKinElmer's ENVISION plate reader • [Materials]: Optiplate-384 well plate (PerKinElmer), kinase buffer (50 mM Hepes pH7.5, 0.25 mM EGTA, 2 mM DTT, 0.01% Tween 20, 10 mM Mg^2+, 0.5 mM Mn^2+), KDR kinase (790-1356 AA, Crown Bioscience), KDR kinase substrate (PerKinElmer catalogue # TRF0127-M), Lance@Eu-W1024-anti-phosphotyrosine (PT66) (PerKinElmer, catalogue #AD0068), ATP (Invitrogen), DMSO (Sigma, catalogue #34869), purified water (Millipore, type: Milli-Q). • [Study conditions]: Mix KDR (final concentration: 20 nM) and compound (final DMSO: 0.5%), pre-incubate for 20 min at 30° C.; then add ATP (final concentration: 90 μM) and the substrate (final concentration […]). React for 2 hrs at 30° C. After the reaction, add antibody and reaction for 60 min at 30° C. Read the plate (615 nm, 665 nm), calculate the ratio of the value at 665 nm vs 615 nm and analyze the data. • [Samples]: Compounds in the examples and Sorafenib (positive control) • [Data Analysis]: Use CBIS data analysis software to calculate IC50 values

Sequence of KDR kinase (790-1356 AA) (P35968 790-1356): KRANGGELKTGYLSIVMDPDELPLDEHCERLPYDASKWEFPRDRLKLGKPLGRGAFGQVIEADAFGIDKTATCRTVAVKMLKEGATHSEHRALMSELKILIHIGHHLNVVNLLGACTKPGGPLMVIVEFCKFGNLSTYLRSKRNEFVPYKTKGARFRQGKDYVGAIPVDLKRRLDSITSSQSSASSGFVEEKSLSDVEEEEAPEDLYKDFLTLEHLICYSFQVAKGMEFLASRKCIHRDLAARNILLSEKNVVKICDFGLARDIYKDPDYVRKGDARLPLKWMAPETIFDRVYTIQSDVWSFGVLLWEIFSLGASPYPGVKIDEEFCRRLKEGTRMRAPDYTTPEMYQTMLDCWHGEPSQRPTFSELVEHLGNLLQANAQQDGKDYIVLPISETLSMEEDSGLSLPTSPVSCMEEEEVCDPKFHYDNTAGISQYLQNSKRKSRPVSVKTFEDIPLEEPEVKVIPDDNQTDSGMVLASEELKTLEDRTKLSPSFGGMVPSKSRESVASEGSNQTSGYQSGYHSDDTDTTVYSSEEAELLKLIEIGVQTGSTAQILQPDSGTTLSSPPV

SMILES | IC50 [nM]
Cc1cc(Oc2cc(NC(=O)C3CC3)ncn2)ccc1NC(=O)Nc1cccc(C(C)(F)F)c1 [Exe. 084] | 12.2
Cc1cc(Oc2cc(NC(=O)C3CC3)ncn2)ccc1NC(=O)Nc1ccc(C#N)c(Cl)c1 [Exe. 086] | 8.3
Cc1cc(Oc2cc(NC(=O)C3CC3)ncn2)ccc1NC(=O)Nc1cc(N2CCOCC2)cc(C(F)(F)F)c1 [Exe. 087] | 12.9
O=C(Nc1ccc(Oc2cc(NC(=O)C3CC3)ncn2)c(Cl)c1)Nc1ccc(F)c(C(F)(F)F)c1 [Exe. 088] | 11.4
O=C(Nc1ccc(F)c(C(F)(F)F)c1)Nc1ccc(Oc2cc(NC(=O)C3CC3)ncn2)cc1Cl [Exe. 089] | 15.2
O=C(Nc1cc(F)cc(C(F)(F)F)c1)Nc1ccc(Oc2cc(NC(=O)C3CC3)ncn2)cc1Cl [Exe. 090] | 12.2
Cc1cc(Oc2cc(NC(=O)C3CC3)ncn2)c(F)cc1NC(=O)Nc1ccc(Cl)c(C(C)(F)F)c1 [Exe. 091] | 12.8
Cc1cc(NC(=O)Nc2ccc(F)c(C(F)(F)F)c2)cc(Oc2cc(NC(=O)C3CC3)ncn2)c1 [Exe. 092] | 192
Cc1cc(NC(=O)Nc2cccc(C(F)(F)F)c2)cc(Oc2cc(NC(=O)C3CC3)ncn2)c1 [Exe. 094] | 200
Cc1cc(NC(=O)Nc2cccc(OC(F)(F)F)c2)cc(Oc2cc(NC(=O)C3CC3)ncn2)c1 [Exe. 095] | 434
Cc1cc(NC(=O)Nc2ccc(Cl)c(C(C)(F)F)c2)cc(Oc2cc(NC(=O)C3CC3)ncn2)c1 [Exe. 096] | 624
O=C(Nc1cc(F)cc(Oc2cc(NC(=O)C3CC3)ncn2)c1)Nc1ccc(F)c(C(F)(F)F)c1 [Exe. 097] | 62.8
O=C(Nc1cc(F)cc(Oc2cc(NC(=O)C3CC3)ncn2)c1)Nc1cc(F)cc(C(F)(F)F)c1 [Exe. 098] | 105
CC(F)(F)c1cc(NC(=O)Nc2cc(F)cc(Oc3cc(NC(=O)C4CC4)ncn3)c2)ccc1Cl [Exe. 099] | 41
O=C(Nc1ccc(Oc2cc(NC(=O)C3CC3)ncn2)cc1)Nc1ccc(F)c(C(F)(F)F)c1 [Exe. 100] | 9
O=C(Nc1ccc(Oc2cc(NC(=O)C3CC3)ncn2)cc1)Nc1cc(F)cc(C(F)(F)F)c1 [Exe. 101] | 12.5
O=C(Nc1cccc(C(F)(F)F)c1)Nc1ccc(Oc2cc(NC(=O)C3CC3)ncn2)c(F)c1 [Exe. 102] | 15

What follows are compounds tested on pERK in MDA-MB-231 cells (assay: Inhibitory activity at pERK (In Cell Western, MDA-MB-231 cells)). Conditions: Homo sapiens, MDA-MB-231, MDA-MB-231 cells; read-out: MDA-MB-231 pERK IC50.
Assay type: cell-based
Procedure: Inhibitory Activity of Compounds at pERK
When the cells reach 80% confluency, collect cells by trypsinization and centrifugation at 800 rpm for 3 minutes. Resuspend cells with appropriate volume of medium and count cell numbers. Adjust cell concentration to 70000 cells/mL, and split 100 μL cell suspension per well into 96-well plates. Transfer the plates into cell culture incubator (37° C., 5% CO2) and incubate cells overnight. Discard the medium, wash with PBS once, Prepare compound serial dilutions in culture medium with total 8 compound concentrations at 3-fold serial dilutions (the final top concentration starts from 30 μM). Dispense 75 μL DMEM medium (with 0.1% BSA) and 25 μL of each test compound dilution into corresponding wells with DMSO at 0.3% final concentration. Continue incubating cells in cell culture incubator for additional 2 hrs at 37° C., 5% CO2. Discard culture medium, and wash cells once with PBS. Add 100 μL of 4% formaldehyde solution to each well and fix for 20 min. Discard the formaldehyde, then add 100 μL ice-cold 100% methanol at 4° C. for 20 min. Discard methanol, wash with PBS three times. Add to each well 100 μL of 2% BSA solution, seal for 30 min at room temperature. Discard the BSA solution, add to each well 50 μL of the 1st antibody solution (prepared with 2% BSA, 1:250 dilution), incubate at 4° C. overnight. Discard the 1^St antibody solution, wash with PBS four times. Add to each well […] the 2nd antibody solution (prepared with 1% BSA, 1:1000 dilution), incubate at room temperature for 1 hr. Discard the 2nd antibody solution, wash with PBS four times, add to each well 100 μL PI solution (1.5 μM), incubate at room temperature for 30 min. Use Acumen (TPP) to measure the fluorescence. • [Samples]: Compounds in the examples and sorafenib (positive control) • [Data Analysis]: Use CBIS data analysis software to calculate IC50 values

SMILES | IC50 [nM]
Cc1cc(Oc2cc(NC(=O)C3CC3)ncn2)ccc1NC(=O)Nc1cccc(C(C)(F)F)c1 [Exe. 084] | 122
Cc1cc(Oc2cc(NC(=O)C3CC3)ncn2)ccc1NC(=O)Nc1cc(N2CCOCC2)cc(C(F)(F)F)c1 [Exe. 087] | 36
O=C(Nc1ccc(Oc2cc(NC(=O)C3CC3)ncn2)c(Cl)c1)Nc1ccc(F)c(C(F)(F)F)c1 [Exe. 088] | 106
O=C(Nc1ccc(F)c(C(F)(F)F)c1)Nc1ccc(Oc2cc(NC(=O)C3CC3)ncn2)cc1Cl [Exe. 089] | 19
O=C(Nc1cc(F)cc(C(F)(F)F)c1)Nc1ccc(Oc2cc(NC(=O)C3CC3)ncn2)cc1Cl [Exe. 090] | 42
Cc1cc(Oc2cc(NC(=O)C3CC3)ncn2)c(F)cc1NC(=O)Nc1ccc(Cl)c(C(C)(F)F)c1 [Exe. 091] | 53
Cc1cc(NC(=O)Nc2ccc(F)c(C(F)(F)F)c2)cc(Oc2cc(NC(=O)C3CC3)ncn2)c1 [Exe. 092] | 57
Cc1cc(NC(=O)Nc2cccc(C(F)(F)F)c2)cc(Oc2cc(NC(=O)C3CC3)ncn2)c1 [Exe. 094] | 163
Cc1cc(NC(=O)Nc2cccc(OC(F)(F)F)c2)cc(Oc2cc(NC(=O)C3CC3)ncn2)c1 [Exe. 095] | 82
Cc1cc(NC(=O)Nc2ccc(Cl)c(C(C)(F)F)c2)cc(Oc2cc(NC(=O)C3CC3)ncn2)c1 [Exe. 096] | 28
O=C(Nc1cc(F)cc(Oc2cc(NC(=O)C3CC3)ncn2)c1)Nc1ccc(F)c(C(F)(F)F)c1 [Exe. 097] | 137
O=C(Nc1cc(F)cc(Oc2cc(NC(=O)C3CC3)ncn2)c1)Nc1cc(F)cc(C(F)(F)F)c1 [Exe. 098] | 752
CC(F)(F)c1cc(NC(=O)Nc2cc(F)cc(Oc3cc(NC(=O)C4CC4)ncn3)c2)ccc1Cl [Exe. 099] | 37
O=C(Nc1ccc(Oc2cc(NC(=O)C3CC3)ncn2)cc1)Nc1ccc(F)c(C(F)(F)F)c1 [Exe. 100] | 300
O=C(Nc1ccc(Oc2cc(NC(=O)C3CC3)ncn2)cc1)Nc1cc(F)cc(C(F)(F)F)c1 [Exe. 101] | 682
O=C(Nc1cccc(C(F)(F)F)c1)Nc1ccc(Oc2cc(NC(=O)C3CC3)ncn2)c(F)c1 [Exe. 102] | 294

Same assay, conditions: Homo sapiens, MDA-MB-231, read-out: MDA-MB-231 pERK IC50

SMILES | IC50 [nM]
Cc1cc(Oc2cc(NC(=O)C3CC3)ncn2)ccc1NC(=O)Nc1ccc(C#N)c(Cl)c1 [Exe. 086] | 226

The compounds below were run on PLC-PRF-5 cells (assay: Inhibition of proliferation of PLC-PRF-5 cells (ATPlite)). Conditions: Homo sapiens, PLC-PRF-5, PLC-PRF-5 cells; read-out: PLC-PRF-5 cell proliferation IC50.
Assay type: cell-based
Text: Inhibitory Activity of Compounds to the Proliferation of PLC-PRF-5 Cells
• [experimental Method]: Use PerKinElmer's ATPlite™ Luminescence ATP Detection Assay System to evaluate the inhibitory activity of compounds to the proliferation of PLC-PRF-5 cells. • [Instruments]: ENVISION plate reader (PerKinElmer) and centrifuge (Thermo Scientific, Sorvall ST16R) • [material]: PLC-PRF-5 cells (ATCC), 96-well plate (Nunc, #165305), DMEM medium (Gibco, #11965-092), PBS (Invitrogen, #10010023), fetal bovine serum (Gibco, #16000044), DMSO (Sigma, #D2650), ATPlite™ Luminescence ATP Detection Assay System (PerkinElmer, #6016949), purified water (Millipore, type: Milli-Q). • [Protocol]: Grow PLC-PRF-5 cells in DMEM supplemented with 10% FBS. When the cells reach 80% confluency, collect cells by trypsinization and centrifugation at 800 rpm for 3 min. Resuspend cells with appropriate volume of medium and count cell numbers. Adjust cell concentration to 50000 cells/mL, and split 160 μL cell suspension per well into 96-well plates. Transfer the plates into cell culture incubator (37° C., 5% CO2) and incubate cells for 2 hrs. Prepare compound serial dilutions in culture medium with total 8 compound concentrations at 3-fold serial dilutions (the final top concentration starts from 30 μM). Dispense 40 μL of each test compound dilution into corresponding wells with DMSO at 0.3% final concentration. Continue incubating cells in cell culture incubator for additional 96 hrs at 37° C., 5% CO2. Discard culture medium, and wash cells once with PBS. Add 50 μL cell lysis buffer per well and shake plates for 5 min at room temperature to ensure complete lysis of cells. Then add 50 μL of substrate solution and shake plates for 1 min at room temperature. Allow the plates to incubate at room temperature for 5 min, followed by recording the luminescence signals using Envision, and subsequent data analysis. • [Samples]: Compounds in the examples and Sorafenib (positive control) • [Data analysis]: Use CBIS data analysis software to calculate IC50 values

SMILES | IC50 [nM]
Cc1cc(Oc2cc(NC(=O)C3CC3)ncn2)ccc1NC(=O)Nc1cccc(C(C)(F)F)c1 [Exe. 084] | 5860
Cc1cc(Oc2cc(NC(=O)C3CC3)ncn2)ccc1NC(=O)Nc1cc(N2CCOCC2)cc(C(F)(F)F)c1 [Exe. 087] | 5050
O=C(Nc1ccc(Oc2cc(NC(=O)C3CC3)ncn2)c(Cl)c1)Nc1ccc(F)c(C(F)(F)F)c1 [Exe. 088] | 2050
O=C(Nc1ccc(F)c(C(F)(F)F)c1)Nc1ccc(Oc2cc(NC(=O)C3CC3)ncn2)cc1Cl [Exe. 089] | 6870
O=C(Nc1cc(F)cc(C(F)(F)F)c1)Nc1ccc(Oc2cc(NC(=O)C3CC3)ncn2)cc1Cl [Exe. 090] | 2800
Cc1cc(Oc2cc(NC(=O)C3CC3)ncn2)c(F)cc1NC(=O)Nc1ccc(Cl)c(C(C)(F)F)c1 [Exe. 091] | 7600
Cc1cc(NC(=O)Nc2ccc(F)c(C(F)(F)F)c2)cc(Oc2cc(NC(=O)C3CC3)ncn2)c1 [Exe. 092] | 17200
Cc1cc(NC(=O)Nc2cccc(C(F)(F)F)c2)cc(Oc2cc(NC(=O)C3CC3)ncn2)c1 [Exe. 094] | 19000
Cc1cc(NC(=O)Nc2cccc(OC(F)(F)F)c2)cc(Oc2cc(NC(=O)C3CC3)ncn2)c1 [Exe. 095] | 19200
Cc1cc(NC(=O)Nc2ccc(Cl)c(C(C)(F)F)c2)cc(Oc2cc(NC(=O)C3CC3)ncn2)c1 [Exe. 096] | 21000
O=C(Nc1cc(F)cc(Oc2cc(NC(=O)C3CC3)ncn2)c1)Nc1ccc(F)c(C(F)(F)F)c1 [Exe. 097] | 9100
O=C(Nc1cc(F)cc(Oc2cc(NC(=O)C3CC3)ncn2)c1)Nc1cc(F)cc(C(F)(F)F)c1 [Exe. 098] | 8400
CC(F)(F)c1cc(NC(=O)Nc2cc(F)cc(Oc3cc(NC(=O)C4CC4)ncn3)c2)ccc1Cl [Exe. 099] | 15000
O=C(Nc1ccc(Oc2cc(NC(=O)C3CC3)ncn2)cc1)Nc1ccc(F)c(C(F)(F)F)c1 [Exe. 100] | 2420
O=C(Nc1ccc(Oc2cc(NC(=O)C3CC3)ncn2)cc1)Nc1cc(F)cc(C(F)(F)F)c1 [Exe. 101] | 2600
O=C(Nc1cccc(C(F)(F)F)c1)Nc1ccc(Oc2cc(NC(=O)C3CC3)ncn2)c(F)c1 [Exe. 102] | 936

Same assay, conditions: Homo sapiens, PLC-PRF-5, read-out: PLC-PRF-5 cell proliferation IC50

SMILES | IC50 [nM]
Cc1cc(Oc2cc(NC(=O)C3CC3)ncn2)ccc1NC(=O)Nc1ccc(C#N)c(Cl)c1 [Exe. 086] | 19300
